Patent publication US20240325548A1, “DYNAMIC BIOACTIVE SCAFFOLDS AND THERAPEUTIC USES THEREOF AFTER CNS INJURY” (Northwestern University, priority 2021, published 2024)

Tests used:
[1] = Fluorescence depolarization (FD) with DPH encapsulated in PA nanofibers; format: physicochemical; details: for supramolecular motion on addition of Ca2+: 5 mM CaCl2, confirmed by FD and T2-NMR; for fluorescence anisotropy: DPH probe in hydrophobic core of IKVAV PA nanofibers
Experimental: An aqueous solution of 100 μL of annealed PA ([PA]=6 mM, [KCl]=3 mM, [NaCl]=150 mM) was added a THF solution (2 μL) of 1,6-diphenyl-1,3,5-hexatriene (DPH; 1.4 mM), and the mixture was incubated for 30 min at 25° C. Then, the mixture was diluted with aqueous KCl and NaCl (1900 μL, [KCl]=3 mM, [NaCl]=150 mM), incubated for 10-30 min at 25° C. to afford a solution of DPH (1.4 μM)-embedded PA (300 μM). To obtain IKVAV PA2 (A2G2) or IKVAV PA5 (G4) in the presence of CaCl2), 5 mM CaCl2) was then added to the DPH-embedded PA aqueous solution to afford PA: CaCl2) at a molar ratio of 6:1. DPH was exited at 336 nm and emission was recorded at 450 nm on an ISS model PC1 spectrofluorometer with a 300 W xenon arc lamp with power of 18 A. Excitation slit and emission slit widths were set as 1 mm (8 nm bandwidth). Anisotropy was calculated using the following equation: […]
Where F∥ represents the parallel intensity to the excitation plane, F⊥ is the perpendicular intensity to the excitation plane, g is grating factor (G-factor) that represents the intensity ratio of the sensitivity of the detection system for vertically and horizontally polarized light. G-factors were determined individually in each measurement. Results were averaged based on 34 iterations from two measurements.

β1-INTEGRIN (ITGB1) = target: T1, β1-INTEGRIN (ITGB1) (Homo sapiens, UniProt P05556); assay: ITGB1 activation and intracellular signaling in hNPCs treated with IKVAV PAs (confocal microscopy, WB); format: cell-based; details: for activation of ITGB1 and downstream pathway (ILK, p-FAK/FAK) with Ca2+ added: PA mixed with 5 mM CaCl2; for active ITGB1 and downstream effectors ILK and p-FAK: relative to other IKVAV PAs, IKVAV peptide, laminin or ornithine
T1 construct: endogenous in cells; host or cells: hNPCs differentiated from human embryonic stem cells HUES 64
T1 sequence (P05556 21-798): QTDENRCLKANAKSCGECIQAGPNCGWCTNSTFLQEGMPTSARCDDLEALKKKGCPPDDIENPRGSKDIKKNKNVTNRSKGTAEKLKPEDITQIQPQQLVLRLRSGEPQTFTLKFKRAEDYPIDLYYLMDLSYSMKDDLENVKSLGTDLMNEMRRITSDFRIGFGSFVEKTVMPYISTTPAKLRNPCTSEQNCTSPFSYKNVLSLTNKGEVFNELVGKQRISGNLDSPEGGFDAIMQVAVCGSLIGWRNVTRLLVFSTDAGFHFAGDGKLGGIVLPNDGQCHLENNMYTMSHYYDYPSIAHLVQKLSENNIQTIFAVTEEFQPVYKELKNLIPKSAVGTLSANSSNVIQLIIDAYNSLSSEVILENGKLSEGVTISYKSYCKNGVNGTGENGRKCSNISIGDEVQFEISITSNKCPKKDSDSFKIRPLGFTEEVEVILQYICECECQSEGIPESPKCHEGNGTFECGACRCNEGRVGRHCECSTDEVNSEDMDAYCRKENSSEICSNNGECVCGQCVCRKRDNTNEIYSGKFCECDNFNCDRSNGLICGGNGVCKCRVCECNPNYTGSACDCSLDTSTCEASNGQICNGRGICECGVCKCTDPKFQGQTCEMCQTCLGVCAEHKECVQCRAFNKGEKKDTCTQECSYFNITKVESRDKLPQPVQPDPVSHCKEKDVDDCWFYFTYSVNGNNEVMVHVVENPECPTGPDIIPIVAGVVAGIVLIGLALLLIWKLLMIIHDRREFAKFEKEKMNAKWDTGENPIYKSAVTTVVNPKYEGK
Text: Neural progenitor cells (NPCs) were differentiated from human embryonic stem cells HUES 64 (Harvard University) (see FIG. 2C). In short, 70% confluent stem cell cultures grown in Matrigel (Thermo Fisher) coated plates with mTESR medium (STEMCELL Technologies), were switched to N2B27 medium (50% DMEM: F12, 50% Neurobasal, supplemented with NEAA, Glutamax, N2 and B27; Gibco) containing dual SMAD inhibitors (SB431542, DNSK International and LDN-193189, Tocris) for 12 days to induce the generation of neural progenitors. Neuralization was enhanced by supplementing medium with laminin from day 5 to 12. Next, neural rosettes were dissociated with neural rosette selection reagent (STEMCELL Technologies) to obtain NPCs, which are expanded in N2B27 (Gibco) medium supplemented with bFGF (Millipore). For experimentation in the different PA platforms, NPCs were dissociated with Accutase (Innovative Cell technology), and cultured in the distinct platforms with DMEM: F12+N2+B27 medium with hyclone penicillin-streptomycin (GE Healthcare) and ascorbic acid (0.2 μg/mL; Sigma-Aldrich).
For IKVAV PA treatments, hNPCs were cultured on ornithine coatings (German Glass, Chemglass Life Science) in 6 well and 24 well plates at a density of 500,000 cells/well and 80,000 cells/well respectively. hNPCs were treated with […] of IKVAV PAs ([PA]=6 mM, [KCl]=3 mM, [NaCl]=150 mM) or recombinant laminin protein (10 mg/mL) in solution. IKVAV PA2 and IKVAV PA5 were also mixed with 5 mM CaCl2) at a ratio PA:CaCl2) 6:1 to treat hNPCs. For 2D experiments, hNPCs were cultured on the different IKVAV PAs or laminin coatings in 6 well and 24 well plates at densities mentioned above. For co-assembled experiments, hNPCs were cultured on the different co-assembled PA coatings in 6 well and 24 well plates at a density of 400,000 cells/well and 50,000 cells/well respectively.
hNPCs were fed 4 times a week with DMEM: F12+N2^+B27 medium with hyclone penicillin-streptomycin and ascorbic acid. After 24 h, 72 h 1- or 2-weeks in vitro, cell lysates were harvested or fixed for WB or ICC, respectively. Three replicates per condition and at least three independent experiments were carried out for all conditions investigated.
For immunofluorescence, fixed primary cultures or free-floating tissue sections (40 m Thick) were incubated in blocking buffer containing 0.02% Triton-X (Sigma-Aldrich), 1% NHS (Gibco) and PBS 1× (Gibco). Samples were incubated with primary antibodies over night at 4° C. Alexa-488, Alexa-555 and/or Alexa-647 (1:500, Thermofisher) were used as secondary antibodies. DAPI (1:500, Thermofisher) was used to stain nuclei. Finally, the samples were mounted on coverslips with Immu-Mount (Fisher Scientific) solution for imaging.
RIPA buffer (Thermofisher) with a cocktail of Halt Protease and Phosphatase Inhibitors (Thermofisher) was used to extract protein from in vitro and in vivo samples. For in vivo studies, spinal cord tissue was then sonicated using a horn sonicator (Branson) to break up the tissue. A Pierce™ BCA Protein Assay Kit (Thermofisher) was used to determine protein content for all samples used. Protein extracts obtained from cell cultures or tissue were separated using an SDS-polyacrylamide gel and electro-transferred to a nitrocellulose membrane (Bio-Rad). Membranes were blocked for 30 minutes to 1 hour using a 5% milk solution (Bio-Rad) and incubated over night with primary antibodies. Corresponding secondary HRP-conjugated antibodies (1:1000, ThermoFisher) were used for 1 h at room temperature. Radiance Bioluminescent ECL substrate (Azure Biosystems) was used to detect protein signal. The membranes were imaged using the Azure Biosystems imager and densitometry analysis were performed using ImageJ software.

[2] = T2-NMR spin-spin relaxation rate of PA assemblies; format: physicochemical; details: for relaxation rate 1H-R2 of methylene protons on ε carbon of K residue in IKVAV: T2-NMR, IKVAV PA library
Experimental: NMR spectra were acquired at 600 MHz on a Tecmag NMR spectrometer using a Doty diffusion probe with a sweep width of 6 kHz and 16k data points or at 600 MHz on a Brucker Neo system with QCI-F cryoprobe.
NMR spectra for IKVAV PAs were recorded at 25° C. using TFA-d, H2O/D2O in 9/1 ratio (D2O contains 0.05 wt. % 3-(trimethylsilyl) propionic-2,2,3,3-d4 acid, sodium salt) as solvents. Chemical shifts are reported in part per million (ppm). Structural assignment was performed using ^1H,^1H-gCOSY, ^1H,^13C-gHSCQAD, TOCSY and NOESY. Multiplicities are quoted as singlet (s), doublet (d), multiplets (m), doublet of doublets (dd), doublet of doublet of doublets (ddd), triplet (t), quartet (q). The […] and typical spectra required 32 scans. Additional scans (512) were required for accurate estimation of the aromatic signal intensity since the epitope containing aromatic protons was present at only 10 mol %.
The spin-spin relaxation rates were measured using the Carr-Purcell-Gill-Meiboom pulse sequence with a delay time of 0.2 ms in a variable loop. The peak intensity data was fit to and exponential in the form:
where τ is the length of the delay time, R2 is the spin-spin relaxation rate and b are the baseline.

[3] = T2 relaxation of K residue of IKVAV PAs, no Ca2+

supramolecular motion on addition of Ca2+ [1] | fluorescence anisotropy [1] | activation of ITGB1 and downstream pathway (ILK, p-FAK/FAK) with Ca2+ added (β1-INTEGRIN (ITGB1)) | active ITGB1 and downstream effectors ILK and p-FAK (β1-INTEGRIN (ITGB1)) | relaxation rate 1H-R2 of methylene protons on ε carbon of K residue in IKVAV [2] [s⁻¹] | R2 [2, 3] [s⁻¹] | R2 ([2]; T2 relaxation of K residue, +Ca2+) [s⁻¹] | in vitro bioactivity (summary) (β1-INTEGRIN (ITGB1)) | Substance
suppressed | 0.21 | decreased | substantially higher | 2.7 ± 0.1 | 2.7 ± 0.1 | 8.6 ± 0.5 | – | C16-A2G2E4GIKVAV [IKVAV PA2]
– | 0.30 | – | intermediate level of activation | – | 5.6 ± 0.4 | – | low level of in vitro bioactivity | C16-VAG2E4GIKVAV [IKVAV PA4]
– | – | – | – | – | 11.2 ± 2.9 | – | low level of in vitro bioactivity | C16-V2A2E4GIKVAV [IKVAV PA1]
suppressed | 0.18 | decreased | substantially higher | 2.6 ± 0.003 | 2.6 ± 0.03 | – | – | C16-G4E4GIKVAV [IKVAV PA5]
